Data set [1] can be described thus: Binding of ligands to hydroxy apatite, ^31 P NMR study. How it is done:
(§1) 1 ml of hydroxy apatite solution 250 mg/ml in water was used for all the binding assays to described.
The solid from 1 ml of hydroxy apatite solution was isolated by centrifugation and the supernatant removed. 0.41 ml of a 0.1M solution of ligand at pH 7.5±0.1 were than added and the solid resuspended. The solid was once more spun down and the supernatant analysed by ^31 P NMR. This enabled the amount of bound phosphonate to be analysed.

Data set [2] can be described thus: Binding of chromium complexes to hydroxy apatite, by T1 relaxation measurement. Particulars: 0.4 ml of 50 mM metal complex; HAP 250 mg/ml. Here is the method:
as §1
The procedure above was followed but this time 0.4 ml of 50 mM metal complex solution was added and the solid resuspended. The supernatant was analysed by T1 using T1 relaxation measurements and the amount bound to hydroxy apatite calculated.

Data set [3] in a line: ^153 Gd biodistribution, IV study in rats. Format: in vivo, male rats. Particulars: for effect of added Ca^2+ or dimethylglucamine on bone uptake: Ca^2+ and dimethylglucamine added separately to aqueous solutions; for Bladder & Urine / Blood / Bone / Carcass / Injection Site / Kidneys / Liver & Spleen / Lung / Muscle / Ratio Bone/Blood / Ratio Bone/Liver & Spleen / Ratio Bone/Muscle / Stomach & Gut / usefulness as bone scanning / bone-seeking agent: rat, IV, two hours post injection. The source says:
This example uses ^153 Gd to compare the biodistribution properties of various complexes in rats.
Using ^153 Gd, a comparison was made of certain properties of aqueous "solutions" of
The biodistribution data there reported were obtained by means of an IV study in male rats which were sacrified two hours post injection. % activity per organ is given, together with ratios of bone to organ.
It is known that Ca^2+ can bind to di- and poly-phosphonates, and that this is one reason why these materials are toxic. It is also known that dimethylglucamine can be used to solubilize complexes of this kind.

Data set [4] in a line: Solubility / precipitation of Gd complexes. Format: physicochemical. How it is done:
Equal volumes of 1 mM methylene diphosphonic acid and 0.5 mM Gd^3+ were used to prepare a complex designated Gd.MDP.
Equal volumes of 10 mM ethane-1-hydroxy-1,1-diphosphonic acid and 5 mM Gd^3+ were used to prepare a complex designated Gd.EHDP.

The mark [5] stands for this setting: ligand 0.1M, 0.41 ml, pH 7.5±0.1, HAP 250 mg/ml, ^31 P NMR.

The source of these data is patent publication US4880007A, “Contrast agent for NMR scanning” (Amersham International PLC, priority 1985, dated 1989).

Regarding `O=P(O)(O)CN(CCO)CP(=O)(O)O` [AEDMP, Amino ethanol dimethylene phosphonate], the “% Bound to HAP” value in data set [1] (setting [5]) worked out at 50.9%.
Still for that read-out and setting: next, `O=C(O)CCCCCN(CP(=O)(O)O)CP(=O)(O)O` [AHADMP, 6-amino hexanoic acid dimethylene phosphonate]: 89.7%.
Take `O=P(O)(O)CN(CCO)CP(=O)(O)O.O=P(O)(O)CN(CCO)CP(=O)(O)O.[Cr]` [Cr(AEDMP)2]: in data set [2], the “% Bound” value turned out to be 96%.
On the same count and under the same terms, the figure for `O=C(O)CCCCCN(CP(=O)(O)O)CP(=O)(O)O.O=C(O)CCCCCN(CP(=O)(O)O)CP(=O)(O)O.[Cr]` [Cr(AHADMP)2] is 96%.
Still for that read-out and setting: next, `O=C(O)CCCN(CP(=O)(O)O)CP(=O)(O)O.O=C(O)CCCN(CP(=O)(O)O)CP(=O)(O)O.[Cr]` [Cr(GABADMP)2]: 90%; `O=C(O)CN(CP(=O)(O)O)CP(=O)(O)O.O=C(O)CN(CP(=O)(O)O)CP(=O)(O)O.[Cr]` [Cr(GDMP)2]: 80%.
Still for that read-out and setting: the figure for `O=P(O)(O)CN(Cc1cccc(CN(CP(=O)(O)O)CP(=O)(O)O)c1)CP(=O)(O)O.[Cr]` [CrMXDTMP] is 96%.
For `O=C(O)CCCN(CP(=O)(O)O)CP(=O)(O)O` [GABADMP, Gamma amino butyric acid dimethylene phosphonate], the “% Bound to HAP” value in data set [1] (setting [5]) was determined as 77.8%.
With `O=C(O)CN(CP(=O)(O)O)CP(=O)(O)O` [GDMP, Glycine dimethylene phosphonate], in data set [1] (pH 7.5), the “% Bound to HAP” value is given as 88.2%.
Consider `O=P(O)(O)CN(CCN(CP(=O)(O)O)CP(=O)(O)O)CP(=O)(O)O.[Gd]` [Gd.EDTMP], for which, in data set [3], the “effect of added Ca^2+ or dimethylglucamine on bone uptake” value is “neither addition had a significant effect”, the “Bladder & Urine” value came out at 45.8 % activity per organ, the Blood was determined as 0.6 % activity per organ and the Bone came to 45.2 % activity per organ. Further, in data set [3], the Carcass is listed as 3.5 % activity per organ, the “Injection Site” value is reported as 2.1 % activity per organ, the Kidneys was 0.4 % activity per organ and the “Liver & Spleen” value turned out to be 1.4 % activity per organ. In data set [3], the Lung was found to be 0.1 % activity per organ, the Muscle is reported as 1.1 % activity per organ, the “Ratio Bone/Blood” value is reported as 173.0 and the “Ratio Bone/Liver & Spleen” value is listed as 35.2. Also, in data set [3], the “Ratio Bone/Muscle” value was determined as 491.2, the “Stomach & Gut” value is 1.9 % activity per organ and the “usefulness as bone scanning / bone-seeking agent” value is listed as “good bone-seeking agent”.
As to `CC(O)(P(=O)(O)O)P(=O)(O)O.[Gd]` [Gd.EHDP], the “pH needed to avoid precipitation” value in data set [4] (equal volumes 10 mM ligand and 5 mM Gd^3+) is given as “above 7”. In addition, in data set [3], the “effect of added Ca^2+ or dimethylglucamine on bone uptake” value is “neither addition had a significant effect”, the “Bladder & Urine” value is 24.0 % activity per organ, the Blood was 21.45 % activity per organ and the Bone came out at 22.64 % activity per organ. Moreover, in data set [3], the Carcass is given as 0.01 % activity per organ, the “Injection Site” value is 2.91 % activity per organ, the Kidneys turned out to be 1.05 % activity per organ and the “Liver & Spleen” value was found to be 11.29 % activity per organ. In addition, in data set [3], the Lung turned out to be 1.55 % activity per organ, the Muscle worked out at 13.8 % activity per organ, the “Ratio Bone/Blood” value stood at 1.24 and the “Ratio Bone/Liver & Spleen” value is listed as 2.04. Further, in data set [3], the “Ratio Bone/Muscle” value amounted to 14.07, the “Stomach & Gut” value is recorded as 4.21 % activity per organ and the “usefulness as bone scanning / bone-seeking agent” value was “not useful as bone scanning agents”.
With `O=P(O)(O)CP(=O)(O)O.[Gd]` [Gd.MDP], the “solubility” value in data set [4] (around physiological pH's) was “poor solubility properties”. In data set [3], the “Bladder & Urine” value came out at 1.0 % activity per organ, the Blood came to 0.1 % activity per organ, the Bone worked out at 3.1 % activity per organ and the Carcass was found to be 0.7 % activity per organ. In addition, in data set [3], the “Injection Site” value is 0.5 % activity per organ, the Kidneys was 0.3 % activity per organ, the “Liver & Spleen” value was 93.9 % activity per organ and the Lung stood at 0.4 % activity per organ. Further, in data set [3], the Muscle worked out at 0.3 % activity per organ, the “Ratio Bone/Blood” value was 33.2, the “Ratio Bone/Liver & Spleen” value is given as 0.0 and the “Ratio Bone/Muscle” value is recorded as 80. In data set [3], the “Stomach & Gut” value is listed as 0.0 % activity per organ and the “usefulness as bone scanning / bone-seeking agent” value is “not useful as bone scanning agents”.
As for `O=P(O)(O)CN(Cc1cccc(CN(CP(=O)(O)O)CP(=O)(O)O)c1)CP(=O)(O)O` [MXDTMP, Meta-xylene diamine tetramethylene phosphonate], the “% Bound to HAP” value in data set [1] (setting [5]) was 84.1%.
Same read-out and setting: next, `O=P(O)(O)CN(Cc1ccc(CN(CP(=O)(O)O)CP(=O)(O)O)cc1)CP(=O)(O)O` [PXDTMP, Para-xylene diamine tetramethylene phosphonate]: 88.0%.
For `[153Gd+3].[Cl-].[Cl-].[Cl-]` [^153 Gd.Cl3], in data set [3], the “Bladder & Urine” value came to 12.5 % activity per organ, the Blood is 3.7 % activity per organ, the Bone turned out to be 38.6 % activity per organ and the Carcass is 1.8 % activity per organ. In data set [3], the “Injection Site” value turned out to be 3.4 % activity per organ, the Kidneys amounted to 2.5 % activity per organ, the “Liver & Spleen” value is 32.5 % activity per organ and the Lung stood at 0.6 % activity per organ. Also, in data set [3], the Muscle came out at 4.0 % activity per organ, the “Ratio Bone/Blood” value was 12.2, the “Ratio Bone/Liver & Spleen” value was determined as 1.1 and the “Ratio Bone/Muscle” value is reported as 83. For the same molecule, in data set [3], the “Stomach & Gut” value was 3.9 % activity per organ.
